Data on twelve molecules can be found in ChEMBL document CHEMBL3217653, “Design and synthesis of -amino alcohol based -lactamisatin chimeras and preliminary analysis of in vitro activity against the protozoal pathogen Trichomonas vaginalis” (Medchemcomm, 2013).

For data set [1], the system named is Trichomonas vaginalis. Nature of the data set: Antimicrobial activity against Trichomonas vaginalis G3 assessed as growth inhibition at 50 uM after 24 hrs by hemocytometry. It is filed as functional. Particulars: G3, 24 h, read-out: GI.
For data set [2], the system named is Trichomonas vaginalis. Nature of the data set: Antimicrobial activity against Trichomonas vaginalis G3 assessed as growth inhibition after 24 hrs by hemocytometry. Type of data set: functional. Particulars: G3, 24 h.
Data set [3] can be described thus: Cytotoxicity against human HeLa cells assessed as cell viability at 10 uM after 24 hrs by trypan blue assay relative to bleomycin. Type of data set: cell-based. Particulars: read-out: Activity.

With `O=C1C(=O)N(CC(CO)N[C@@H]2C(=O)N(C3CCCCC3)[C@@H]2/C=C/c2ccccc2)c2ccc(F)cc21` (relative stereo), the inhibition of growth at 50 µM in data set [1] was 64.6%. Still for that read-out and setting: to `O=C1C(=O)N(CC(CO)N[C@@H]2C(=O)N(C3CCCCC3)[C@@H]2/C=C/c2ccccc2)c2ccc(Cl)cc21` (relative stereo) belongs 61.8%. The same measure, in the same setting: to `Cc1ccc(N2C(=O)[C@@H](NC(CO)CN3C(=O)C(=O)c4cc(C)ccc43)[C@H]2/C=C/c2ccccc2)cc1` (relative stereo) belongs 56%. Take `O=C1C(=O)N(CC(CO)N[C@@H]2C(=O)N(c3ccc(Cl)cc3)[C@@H]2/C=C/c2ccccc2)c2ccccc21` (some centres undefined): the IC50 in data set [2] was found to be 24.7 µM. Further, the inhibition of growth at 50 µM in data set [1] was 76.2%. Regarding `O=C1C(=O)N(CC(CO)N[C@@H]2C(=O)N(C3CCCCC3)[C@@H]2/C=C/c2ccccc2)c2ccccc21` (relative stereo), in data set [2], the IC50 was 18.5 µM. In addition, the inhibition of growth at 50 µM in data set [1] was 93.6%. With `Cc1ccc(N2C(=O)[C@@H](NC(CO)CN3C(=O)C(=O)c4cc(Cl)ccc43)[C@H]2/C=C/c2ccccc2)cc1` (relative stereo), in data set [1], the inhibition of growth at 50 µM amounted to 59.8%. Regarding `Cc1ccc2c(c1)C(=O)C(=O)N2CC(CO)N[C@@H]1C(=O)N(c2ccc(Cl)cc2)[C@@H]1/C=C/c1ccccc1` (some centres undefined), the IC50 in data set [2] was found to be 14.6 µM. Also, the inhibition of growth at 50 µM in data set [1] stood at 97.6%. For `Cc1ccc(N2C(=O)[C@@H](NC(CO)CN3C(=O)C(=O)c4ccccc43)[C@H]2/C=C/c2ccccc2)cc1` (relative stereo), in data set [2], the IC50 stood at 19.2 µM. Besides, in data set [1], the inhibition of growth at 50 µM turned out to be 95.3%. Turning to `Cc1ccc(N2C(=O)[C@@H](NC(CO)CN3C(=O)C(=O)c4cc(F)ccc43)[C@H]2/C=C/c2ccccc2)cc1` (relative stereo), in data set [1], the inhibition of growth at 50 µM was 71.9%. For `O=C1C(=O)N(CC(CO)N[C@@H]2C(=O)N(c3ccc(Cl)cc3)[C@@H]2/C=C/c2ccccc2)c2ccc(F)cc21` (some centres undefined), the IC50 in data set [2] was determined as 27.4 µM. The inhibition of growth at 50 µM in data set [1] worked out at 77.2%.

Consider `O=C1C(=O)N(CC(CO)N[C@@H]2C(=O)N(c3ccc(Cl)cc3)[C@@H]2/C=C/c2ccccc2)c2ccc(Cl)cc21` (relative stereo), for which the IC50 in data set [2] came out at 9.73 µM. The inhibition of growth at 50 µM in data set [1] was 97.1%. In data set [3], the viability at 24 h, 10 µM came out at 30%. Consider `Cc1ccc2c(c1)C(=O)C(=O)N2CC(CO)N[C@@H]1C(=O)N(C2CCCCC2)[C@@H]1/C=C/c1ccccc1` (relative stereo), for which the inhibition of growth at 50 µM in data set [1] stood at 70.8%.
